Laboratory results from ChEMBL document CHEMBL5465560, “Selectivity Literature for EUbOPEN Chemogenomic Library” (2024).
pIC50: −log10 of the molar value. Values belong to the compound of their own block, whether it stands above or below them.

Assays:
[1] = molecular target: 5-hydroxytryptamine receptor 2A (Homo sapiens, UniProt P28223); test: Selectivity interaction (Serotonin 5HT2A Calcium flux assay, agonist and antagonist mode ) EUB0000877a HTR2A
[2] = molecular target: Calcium/calmodulin-dependent protein kinase type II subunit alpha (Homo sapiens, UniProt Q9UQM7); test: Selectivity interaction (Upstate Kinase Profiler service (Millipore)) EUB0000056c CAMK2A; conditions: at 1 µM
[3] = molecular target: Ephrin type-A receptor 7 (Homo sapiens) (UniProt Q15375); conditions: at 10 µM
[4] = molecular target: T1, Serine/threonine-protein kinase RIO1 (Homo sapiens) (UniProt Q9BRS2); test: Selectivity interaction (Kinase panel (DSF assay)) EUB0001558a RIOK1
T1 sequence (whole entry): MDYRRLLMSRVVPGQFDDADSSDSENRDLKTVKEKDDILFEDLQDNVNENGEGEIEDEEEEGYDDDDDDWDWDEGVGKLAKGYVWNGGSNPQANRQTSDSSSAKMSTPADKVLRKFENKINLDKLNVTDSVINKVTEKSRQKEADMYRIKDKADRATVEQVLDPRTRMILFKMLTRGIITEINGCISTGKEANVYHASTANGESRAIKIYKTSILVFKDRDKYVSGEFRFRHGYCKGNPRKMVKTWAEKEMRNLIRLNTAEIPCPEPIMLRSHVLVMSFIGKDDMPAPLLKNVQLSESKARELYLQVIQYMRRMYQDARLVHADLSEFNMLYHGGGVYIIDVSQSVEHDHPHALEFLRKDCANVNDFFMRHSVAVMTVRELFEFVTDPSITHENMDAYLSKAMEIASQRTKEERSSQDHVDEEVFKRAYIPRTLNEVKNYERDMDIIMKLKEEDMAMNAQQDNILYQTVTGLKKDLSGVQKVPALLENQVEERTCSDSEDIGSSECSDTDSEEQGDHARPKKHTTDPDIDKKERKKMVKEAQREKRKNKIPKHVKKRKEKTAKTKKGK

[5] = molecular target: Kappa-type opioid receptor (Homo sapiens, UniProt P41145); test: Selectivity interaction (GPCR panel (PDSP screen)) EUB0001079a OPRK1; conditions: at 10 µM
[6] = molecular target: T2, Histone-lysine N-methyltransferase SETD7 (Homo sapiens) (UniProt Q8WTS6); test: Selectivity interaction (Transferase panel (protein, RNA, and DNA methyltransferases. and EP300 (acetyltransferase))) EUB0000270b SETD7
T2 sequence (whole entry): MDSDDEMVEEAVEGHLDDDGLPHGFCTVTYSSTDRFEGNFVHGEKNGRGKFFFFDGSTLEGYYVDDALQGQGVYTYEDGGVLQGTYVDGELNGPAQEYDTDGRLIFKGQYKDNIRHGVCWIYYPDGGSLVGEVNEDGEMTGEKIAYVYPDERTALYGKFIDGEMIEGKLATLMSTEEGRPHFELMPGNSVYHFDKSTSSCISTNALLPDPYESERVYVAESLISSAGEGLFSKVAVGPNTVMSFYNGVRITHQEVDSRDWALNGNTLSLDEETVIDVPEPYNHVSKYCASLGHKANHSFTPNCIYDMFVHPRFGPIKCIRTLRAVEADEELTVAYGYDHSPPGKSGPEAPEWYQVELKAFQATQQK

[7] = molecular target: T3, Histone-lysine N-methyltransferase SMYD3 (Homo sapiens) (UniProt Q9H7B4); test: Selectivity interaction (Transferase panel (protein, RNA, and DNA methyltransferases. and EP300 (acetyltransferase))) EUB0000270b SMYD3
T3 sequence (whole entry): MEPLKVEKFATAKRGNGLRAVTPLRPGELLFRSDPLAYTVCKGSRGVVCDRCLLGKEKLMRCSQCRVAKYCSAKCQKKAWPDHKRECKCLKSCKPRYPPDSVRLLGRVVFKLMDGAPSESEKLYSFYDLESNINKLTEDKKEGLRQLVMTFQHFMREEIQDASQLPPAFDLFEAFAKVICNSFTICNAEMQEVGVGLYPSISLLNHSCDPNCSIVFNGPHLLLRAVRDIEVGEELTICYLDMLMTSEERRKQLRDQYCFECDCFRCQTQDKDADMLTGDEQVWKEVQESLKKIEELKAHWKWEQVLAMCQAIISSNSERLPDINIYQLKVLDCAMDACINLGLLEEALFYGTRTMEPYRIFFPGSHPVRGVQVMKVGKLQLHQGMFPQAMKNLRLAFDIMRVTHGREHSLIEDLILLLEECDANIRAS

[8] = molecular target: Casein kinase I isoform gamma-2 (Homo sapiens) (UniProt P78368); test: Selectivity interaction (KinomeScan (DiscoverX)) EUB0000229b CSNK1G2; conditions: at 10 µM
Chain of Casein kinase I isoform gamma-2 (Homo sapiens) (P78368 whole entry, looked up, canonical isoform): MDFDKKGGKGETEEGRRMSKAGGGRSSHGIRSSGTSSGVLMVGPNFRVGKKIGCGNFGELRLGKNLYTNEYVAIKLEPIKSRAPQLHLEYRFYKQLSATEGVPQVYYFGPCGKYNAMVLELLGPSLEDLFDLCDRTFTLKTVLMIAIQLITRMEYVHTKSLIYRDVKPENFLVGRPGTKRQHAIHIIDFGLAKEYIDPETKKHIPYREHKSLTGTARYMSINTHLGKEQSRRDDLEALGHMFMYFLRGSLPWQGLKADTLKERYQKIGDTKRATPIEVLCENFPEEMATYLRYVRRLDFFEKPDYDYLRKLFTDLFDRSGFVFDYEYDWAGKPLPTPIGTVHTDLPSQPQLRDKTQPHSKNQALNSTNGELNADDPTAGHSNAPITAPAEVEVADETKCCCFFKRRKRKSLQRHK

Chain of Kappa-type opioid receptor (P41145 whole entry): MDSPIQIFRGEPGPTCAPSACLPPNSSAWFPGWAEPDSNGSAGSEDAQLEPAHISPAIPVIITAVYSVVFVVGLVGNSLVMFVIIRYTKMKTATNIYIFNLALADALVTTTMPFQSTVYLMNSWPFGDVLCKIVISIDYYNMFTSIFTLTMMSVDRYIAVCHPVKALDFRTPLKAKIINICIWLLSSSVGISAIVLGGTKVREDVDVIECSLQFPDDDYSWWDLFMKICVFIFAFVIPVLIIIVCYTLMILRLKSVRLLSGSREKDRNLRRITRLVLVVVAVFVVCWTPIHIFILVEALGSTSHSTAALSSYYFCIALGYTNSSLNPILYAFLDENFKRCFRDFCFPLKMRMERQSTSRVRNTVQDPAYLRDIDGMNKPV
Chain of Calcium/calmodulin-dependent protein kinase type II subunit alpha (Q9UQM7 whole entry): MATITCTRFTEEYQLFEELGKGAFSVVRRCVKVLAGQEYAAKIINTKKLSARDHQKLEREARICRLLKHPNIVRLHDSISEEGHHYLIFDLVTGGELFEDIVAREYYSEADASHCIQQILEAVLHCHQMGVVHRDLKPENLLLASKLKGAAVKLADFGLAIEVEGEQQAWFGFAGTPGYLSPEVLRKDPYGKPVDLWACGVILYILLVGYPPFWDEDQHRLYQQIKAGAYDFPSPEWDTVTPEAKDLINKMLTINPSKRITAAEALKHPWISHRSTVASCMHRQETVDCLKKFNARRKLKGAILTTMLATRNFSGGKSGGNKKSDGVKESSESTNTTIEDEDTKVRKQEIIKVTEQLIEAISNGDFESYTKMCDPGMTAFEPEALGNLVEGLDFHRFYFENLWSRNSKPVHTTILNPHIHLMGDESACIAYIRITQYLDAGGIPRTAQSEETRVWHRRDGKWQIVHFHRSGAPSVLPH
Chain of Ephrin type-A receptor 7 (Homo sapiens) (Q15375 28-998 limits assumed): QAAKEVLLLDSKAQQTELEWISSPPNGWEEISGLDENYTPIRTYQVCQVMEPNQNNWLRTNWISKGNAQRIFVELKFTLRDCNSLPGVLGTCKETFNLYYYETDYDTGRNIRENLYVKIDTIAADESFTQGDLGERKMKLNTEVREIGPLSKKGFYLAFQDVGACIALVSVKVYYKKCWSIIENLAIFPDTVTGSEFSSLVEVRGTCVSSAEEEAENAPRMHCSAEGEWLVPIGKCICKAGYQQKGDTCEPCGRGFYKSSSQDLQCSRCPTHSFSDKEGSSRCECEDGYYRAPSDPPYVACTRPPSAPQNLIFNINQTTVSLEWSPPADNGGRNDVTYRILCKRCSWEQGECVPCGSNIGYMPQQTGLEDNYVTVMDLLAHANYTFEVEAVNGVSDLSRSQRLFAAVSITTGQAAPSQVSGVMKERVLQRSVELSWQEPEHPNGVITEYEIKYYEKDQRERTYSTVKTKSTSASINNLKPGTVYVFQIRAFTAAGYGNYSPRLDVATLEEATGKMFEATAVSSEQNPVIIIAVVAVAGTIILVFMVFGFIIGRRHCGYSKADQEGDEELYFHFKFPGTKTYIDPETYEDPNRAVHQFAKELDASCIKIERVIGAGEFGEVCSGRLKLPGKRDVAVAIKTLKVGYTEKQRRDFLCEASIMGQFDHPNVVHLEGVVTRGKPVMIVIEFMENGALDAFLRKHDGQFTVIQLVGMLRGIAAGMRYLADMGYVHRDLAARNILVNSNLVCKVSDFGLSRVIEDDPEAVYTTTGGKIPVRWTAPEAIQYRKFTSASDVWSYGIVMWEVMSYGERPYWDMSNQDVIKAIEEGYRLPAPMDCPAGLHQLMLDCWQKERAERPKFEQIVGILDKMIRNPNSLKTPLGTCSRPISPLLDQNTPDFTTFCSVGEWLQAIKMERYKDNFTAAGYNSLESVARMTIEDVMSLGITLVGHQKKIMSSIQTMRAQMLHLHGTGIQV
Chain of 5-hydroxytryptamine receptor 2A (P28223 whole entry): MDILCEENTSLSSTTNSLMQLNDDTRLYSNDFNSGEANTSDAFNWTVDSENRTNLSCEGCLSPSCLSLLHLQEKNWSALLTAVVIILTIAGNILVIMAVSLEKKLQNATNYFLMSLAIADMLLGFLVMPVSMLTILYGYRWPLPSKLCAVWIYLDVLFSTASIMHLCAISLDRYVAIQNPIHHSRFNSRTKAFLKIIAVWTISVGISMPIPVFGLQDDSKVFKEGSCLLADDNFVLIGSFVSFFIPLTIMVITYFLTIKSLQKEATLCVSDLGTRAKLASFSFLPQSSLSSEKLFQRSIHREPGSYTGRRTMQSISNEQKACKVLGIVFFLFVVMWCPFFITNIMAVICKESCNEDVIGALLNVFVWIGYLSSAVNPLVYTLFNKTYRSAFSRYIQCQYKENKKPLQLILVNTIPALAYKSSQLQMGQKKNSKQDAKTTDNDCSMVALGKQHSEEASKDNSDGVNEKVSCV

- pIC50 [1]: < 4.52
Structure (SMILES): CCC(=O)N1CC[C@H](Nc2ncnc3c2CN(c2cnc(OC)c(C(F)(F)F)c2)CC3)C1 [LENIOLISIB]

- % of control [3]: 100%
Structure (SMILES): CCN(CC)CCCCNc1ncc2cc(-c3cc(OC)cc(OC)c3)c(NC(=O)NC(C)(C)C)nc2n1

- % activity ([6]; at 1 µM): > 90%
- % activity ([6]; at 10 µM): > 80%
- % activity ([7]; at 1 µM): > 90%
- % activity ([7]; at 10 µM): > 80%
Structure (SMILES): Cc1cc(CN)cc(C)c1-c1ncn(C)c1-c1cncn1C

Further lines, the compound ahead of its results:

Structure (SMILES): Cc1ccc(-c2ccc3c(ccc4sc5c(c43)NC[C@@H](C)NC5=O)n2)cn1
- % of inhibition [2]: 87%

Structure (SMILES): CC(C)(O)[C@H](F)CN1Cc2cc(NC(=O)c3cnn4cccnc34)c(N3CCOCC3)cc2C1=O
- dTM [4]: -0.3 K

Structure (SMILES): Nc1cnc(N2CCc3cc(S(=O)(=O)Nc4c(F)cc(Cl)cc4F)cc(N4CCCC4=O)c32)nc1 [TP-020n]
- % of inhibition [5]: 14.9%

Structure (SMILES): COc1cc(N(C)c2ccnc3ccc(C(F)(F)F)cc23)cc(OC)c1OC
- % binding [8]: 96%
